Numbers after ± are expanded uncertainties.

From the NIST ThermoML archive (doi:10.1016/j.jct.2017.07.026) come the findings set out here.

For data set [1] the following is noted: 298.15 K, Liquid.
Data set [2] is described as follows: mn = molality of the nth substance listed, in mol/kg. The note with it: 298.15 K, 100 kPa, Liquid, Vibrating tube method.

For `CCCCCC(C)C` [2-methylheptane], in data set [1] (100 kPa, Vibrating tube method), the mass density (usually mass per unit of volume) turned out to be 693.9 ± 1.4 kg/m3.

With `CCCCCC(C)C` [2-methylheptane] + CO, the mass density was determined as 784.76 ± 0.33 kg/m3 in data set [2] (m1 = 0.1174); 784.42 ± 0.33 kg/m3 in data set [2] (m1 = 0.1406); 783.3 ± 0.33 kg/m3 in data set [2] (m1 = 0.2155); 781.09 ± 0.33 kg/m3 in data set [2] (m1 = 0.3711); 780.47 ± 0.33 kg/m3 in data set [2] (m1 = 0.4177); 780.04 ± 0.33 kg/m3 in data set [2] (m1 = 0.4497). Besides, the mass density in data set [2] (m1 = 0.5259) was 779.01 ± 0.33 kg/m3; in data set [2] (m1 = 0.5815) it was 778.29 ± 0.34 kg/m3; in data set [2] (m1 = 0.639), 777.54 ± 0.34 kg/m3; in data set [2] (m1 = 0.7339), 776.35 ± 0.34 kg/m3.

Consider `CCCC(C)C` [2-methylpentane], for which the mass density in data set [1] (100 kPa, Vibrating tube method) worked out at 648.48 ± 0.67 kg/m3.

Turning to `CCCC(C)C` [2-methylpentane] + CO, the mass density in data set [2] (m1 = 0.02577) amounted to 786.15 ± 0.33 kg/m3; in data set [2] (m1 = 0.09112) it was 785.08 ± 0.33 kg/m3; in data set [2] (m1 = 0.1002), 784.95 ± 0.33 kg/m3; in data set [2] (m1 = 0.1267), 784.51 ± 0.33 kg/m3; in data set [2] (m1 = 0.1833), 783.59 ± 0.33 kg/m3; in data set [2] (m1 = 0.2247), 782.95 ± 0.33 kg/m3. Moreover, the mass density in data set [2] (m1 = 0.2392) was determined as 782.73 ± 0.33 kg/m3; in data set [2] (m1 = 0.3355), 781.24 ± 0.33 kg/m3; in data set [2] (m1 = 0.3506), 781.02 ± 0.33 kg/m3; in data set [2] (m1 = 0.3833), 780.53 ± 0.33 kg/m3; in data set [2] (m1 = 0.4498), 779.5 ± 0.33 kg/m3; in data set [2] (m1 = 0.4937), 778.85 ± 0.34 kg/m3. Further, the mass density in data set [2] (m1 = 0.5032) came out at 778.68 ± 0.34 kg/m3; in data set [2] (m1 = 0.5629), 777.84 ± 0.34 kg/m3; in data set [2] (m1 = 0.6343) it was 776.78 ± 0.34 kg/m3.

`CCC(C)CC` [3-methylpentane]: in data set [1] (100 kPa, Vibrating tube method), the mass density is listed as 659.76 ± 0.68 kg/m3.

Turning to `CCC(C)CC` [3-methylpentane] + CO, the mass density in data set [2] (m1 = 0.02902) is 786.12 ± 0.33 kg/m3; in data set [2] (m1 = 0.04025), 785.97 ± 0.33 kg/m3; in data set [2] (m1 = 0.06079), 785.65 ± 0.33 kg/m3; in data set [2] (m1 = 0.07925), 785.37 ± 0.33 kg/m3; in data set [2] (m1 = 0.1106) it was 784.93 ± 0.33 kg/m3; in data set [2] (m1 = 0.2045) it was 783.51 ± 0.33 kg/m3. In addition, the mass density in data set [2] (m1 = 0.307) is reported as 782.05 ± 0.33 kg/m3; in data set [2] (m1 = 0.3825) it was 781.03 ± 0.33 kg/m3; in data set [2] (m1 = 0.3944), 780.81 ± 0.34 kg/m3; in data set [2] (m1 = 0.4638), 779.87 ± 0.33 kg/m3; in data set [2] (m1 = 0.5751), 778.42 ± 0.33 kg/m3; in data set [2] (m1 = 0.6145), 777.81 ± 0.34 kg/m3. In addition, the mass density in data set [2] (m1 = 0.7207) is reported as 776.46 ± 0.34 kg/m3.

Turning to `CCCCCCC` [heptane], the mass density in data set [1] (101.33 kPa, Pycnometric method) was 679.455 ± 0.22 kg/m3.

In the case of `CO` [methanol], the mass density in data set [1] (100 kPa, Vibrating tube method) is reported as 786.57 ± 0.33 kg/m3.

Regarding `CO` [methanol] + CCC(C)CC, the mass density in data set [2] (m2 = 0) is reported as 786.57 ± 0.33 kg/m3.

Take `CO` [methanol] + CCCC(C)C: the mass density in data set [2] (m2 = 0) stood at 786.57 ± 0.33 kg/m3.

For the compound `CO` [methanol] + CCCCCC(C)C, the mass density in data set [2] (m2 = 0) was found to be 786.57 ± 0.33 kg/m3.

With `Cc1ccccc1` [toluene], the mass density in data set [1] (101.33 kPa, Pycnometric method) turned out to be 862.214 ± 0.26 kg/m3.
